Test results from the kinase profiling compilation of Christmann-Franck et al. (2016).

Tests used:
Experiment in all cases: radiometric filter-binding kinase assay, Kinase HotSpot
Conditions in all cases: compound 0.5 µM; ATP 10 µM
IRAK4 (human) = IRAK4 (human) (UniProt Q9NWZ3)
[1] = tested on: MKNK1 (human), Q9BUB5 [T385D; 165-205 del]
NEK9 (human) = NEK9 (human) (UniProt Q8TD19)
IKBKE (human) = IKBKE (human) (UniProt Q14164)
MAPK9 (human) = MAPK9 (human) (UniProt P45984)
LTK (human) = LTK (human) (UniProt P29376)
CSF1R (human) = CSF1R (human) (UniProt P07333)
MAP3K7 TAB1 (human) = MAP3K7 TAB1 (human) (UniProt O43318+Q15750)
EPHA7 (human) = EPHA7 (human) (UniProt Q15375)
STK38 (human) = STK38 (human) (UniProt Q15208)
PRKD3 (human) = PRKD3 (human) (UniProt O94806)
TSSK1B (human) = TSSK1B (human) (UniProt Q9BXA7)
NEK1 (human) = NEK1 (human) (UniProt Q96PY6)
CDK9 CCNK (human) = CDK9 CCNK (human) (UniProt O75909+P50750)
WEE1 (human) = WEE1 (human) (UniProt P30291)
STK16 (human) = STK16 (human) (UniProt O75716)
EPHB3 (human) = EPHB3 (human) (UniProt P54753)
Sequence of EPHB3 (human) (P54753 whole entry, looked up): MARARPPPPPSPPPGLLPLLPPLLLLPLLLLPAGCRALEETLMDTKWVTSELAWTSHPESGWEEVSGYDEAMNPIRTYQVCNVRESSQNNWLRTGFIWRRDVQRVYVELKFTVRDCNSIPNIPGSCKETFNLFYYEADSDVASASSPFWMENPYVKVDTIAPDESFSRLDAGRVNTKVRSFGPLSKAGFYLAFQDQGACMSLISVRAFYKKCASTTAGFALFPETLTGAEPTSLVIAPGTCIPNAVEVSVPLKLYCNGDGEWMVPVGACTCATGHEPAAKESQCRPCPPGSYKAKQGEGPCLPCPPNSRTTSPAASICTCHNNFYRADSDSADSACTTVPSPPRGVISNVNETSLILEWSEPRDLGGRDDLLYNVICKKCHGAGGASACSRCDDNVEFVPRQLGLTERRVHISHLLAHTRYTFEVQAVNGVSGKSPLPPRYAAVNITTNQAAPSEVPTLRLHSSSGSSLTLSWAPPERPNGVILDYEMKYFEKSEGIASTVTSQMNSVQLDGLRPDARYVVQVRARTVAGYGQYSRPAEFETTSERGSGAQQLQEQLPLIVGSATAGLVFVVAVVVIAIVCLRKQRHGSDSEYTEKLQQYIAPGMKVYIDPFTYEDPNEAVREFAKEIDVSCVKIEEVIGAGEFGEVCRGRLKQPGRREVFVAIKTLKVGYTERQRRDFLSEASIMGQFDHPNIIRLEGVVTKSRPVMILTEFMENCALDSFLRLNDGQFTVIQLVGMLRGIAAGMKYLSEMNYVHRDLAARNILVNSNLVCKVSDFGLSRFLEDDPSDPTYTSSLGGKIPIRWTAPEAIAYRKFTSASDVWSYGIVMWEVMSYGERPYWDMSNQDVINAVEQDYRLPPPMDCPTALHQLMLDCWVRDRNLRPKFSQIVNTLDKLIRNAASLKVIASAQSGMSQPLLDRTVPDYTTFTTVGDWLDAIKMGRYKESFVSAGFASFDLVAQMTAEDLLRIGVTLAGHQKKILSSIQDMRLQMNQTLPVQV

PRKCE (human) = PRKCE (human) (UniProt Q02156)
WNK3 (human) = WNK3 (human) (UniProt Q9BYP7)
NTRK1 (human) = NTRK1 (human) (UniProt P04629)
Sequence of NTRK1 (human) (P04629 whole entry, looked up): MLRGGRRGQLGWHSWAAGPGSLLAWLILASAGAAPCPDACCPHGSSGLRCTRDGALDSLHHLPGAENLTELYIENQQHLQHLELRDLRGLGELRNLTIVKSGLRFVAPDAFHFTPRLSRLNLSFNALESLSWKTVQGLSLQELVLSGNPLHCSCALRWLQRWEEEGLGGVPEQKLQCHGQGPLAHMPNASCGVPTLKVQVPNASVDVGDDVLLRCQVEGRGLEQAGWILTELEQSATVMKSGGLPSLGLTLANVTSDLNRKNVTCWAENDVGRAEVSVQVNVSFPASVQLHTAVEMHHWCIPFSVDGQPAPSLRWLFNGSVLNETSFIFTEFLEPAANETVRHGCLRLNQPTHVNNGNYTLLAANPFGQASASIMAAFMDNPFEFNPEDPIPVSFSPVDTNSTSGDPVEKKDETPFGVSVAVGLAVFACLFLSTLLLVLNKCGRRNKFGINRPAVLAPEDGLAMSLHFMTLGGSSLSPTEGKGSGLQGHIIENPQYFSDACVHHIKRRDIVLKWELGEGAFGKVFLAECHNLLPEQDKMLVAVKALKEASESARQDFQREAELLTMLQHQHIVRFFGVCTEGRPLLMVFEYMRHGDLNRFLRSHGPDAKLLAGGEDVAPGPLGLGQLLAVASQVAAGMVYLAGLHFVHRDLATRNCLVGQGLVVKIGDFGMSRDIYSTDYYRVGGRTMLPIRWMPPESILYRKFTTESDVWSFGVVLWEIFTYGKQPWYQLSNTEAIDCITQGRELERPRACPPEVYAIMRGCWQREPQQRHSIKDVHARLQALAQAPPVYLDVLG

EPHB4 (human) = EPHB4 (human) (UniProt P54760)
LRRK2 (human) = LRRK2 (human) (UniProt Q5S007)
PAK2 (human) = PAK2 (human) (UniProt Q13177)
PHKG2 (human) = PHKG2 (human) (UniProt P15735)
Sequence of PHKG2 (human) (P15735 whole entry, looked up): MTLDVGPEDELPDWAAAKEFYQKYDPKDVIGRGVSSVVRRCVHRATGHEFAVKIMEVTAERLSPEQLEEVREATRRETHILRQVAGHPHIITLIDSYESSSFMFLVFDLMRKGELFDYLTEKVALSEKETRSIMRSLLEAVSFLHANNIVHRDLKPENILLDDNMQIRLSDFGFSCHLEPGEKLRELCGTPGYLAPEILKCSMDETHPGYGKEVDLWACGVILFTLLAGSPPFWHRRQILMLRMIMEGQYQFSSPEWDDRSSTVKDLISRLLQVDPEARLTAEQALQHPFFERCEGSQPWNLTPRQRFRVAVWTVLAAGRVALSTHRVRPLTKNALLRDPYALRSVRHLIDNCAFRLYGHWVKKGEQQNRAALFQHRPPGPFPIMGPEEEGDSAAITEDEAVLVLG

ULK3 (human) = ULK3 (human) (UniProt Q6PHR2)
AKT2 (human) = AKT2 (human) (UniProt P31751)
Sequence of AKT2 (human) (P31751 whole entry, looked up): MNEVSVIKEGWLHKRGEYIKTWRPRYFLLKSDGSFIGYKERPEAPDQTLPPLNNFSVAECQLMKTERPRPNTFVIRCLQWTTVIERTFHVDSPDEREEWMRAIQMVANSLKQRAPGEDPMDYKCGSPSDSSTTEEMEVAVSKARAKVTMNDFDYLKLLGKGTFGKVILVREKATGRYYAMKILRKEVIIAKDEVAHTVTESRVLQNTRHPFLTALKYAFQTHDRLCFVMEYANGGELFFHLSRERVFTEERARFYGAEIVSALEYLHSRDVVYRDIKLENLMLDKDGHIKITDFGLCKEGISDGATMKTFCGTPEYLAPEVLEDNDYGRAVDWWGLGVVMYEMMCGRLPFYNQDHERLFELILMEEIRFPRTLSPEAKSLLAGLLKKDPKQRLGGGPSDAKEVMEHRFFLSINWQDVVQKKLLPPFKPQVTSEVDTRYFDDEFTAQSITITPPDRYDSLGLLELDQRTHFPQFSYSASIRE

PRKACG (human) = PRKACG (human) (UniProt P22612)
MYO3B (human) = MYO3B (human) (UniProt Q8WXR4)
Sequence of MYO3B (human) (Q8WXR4 whole entry, looked up): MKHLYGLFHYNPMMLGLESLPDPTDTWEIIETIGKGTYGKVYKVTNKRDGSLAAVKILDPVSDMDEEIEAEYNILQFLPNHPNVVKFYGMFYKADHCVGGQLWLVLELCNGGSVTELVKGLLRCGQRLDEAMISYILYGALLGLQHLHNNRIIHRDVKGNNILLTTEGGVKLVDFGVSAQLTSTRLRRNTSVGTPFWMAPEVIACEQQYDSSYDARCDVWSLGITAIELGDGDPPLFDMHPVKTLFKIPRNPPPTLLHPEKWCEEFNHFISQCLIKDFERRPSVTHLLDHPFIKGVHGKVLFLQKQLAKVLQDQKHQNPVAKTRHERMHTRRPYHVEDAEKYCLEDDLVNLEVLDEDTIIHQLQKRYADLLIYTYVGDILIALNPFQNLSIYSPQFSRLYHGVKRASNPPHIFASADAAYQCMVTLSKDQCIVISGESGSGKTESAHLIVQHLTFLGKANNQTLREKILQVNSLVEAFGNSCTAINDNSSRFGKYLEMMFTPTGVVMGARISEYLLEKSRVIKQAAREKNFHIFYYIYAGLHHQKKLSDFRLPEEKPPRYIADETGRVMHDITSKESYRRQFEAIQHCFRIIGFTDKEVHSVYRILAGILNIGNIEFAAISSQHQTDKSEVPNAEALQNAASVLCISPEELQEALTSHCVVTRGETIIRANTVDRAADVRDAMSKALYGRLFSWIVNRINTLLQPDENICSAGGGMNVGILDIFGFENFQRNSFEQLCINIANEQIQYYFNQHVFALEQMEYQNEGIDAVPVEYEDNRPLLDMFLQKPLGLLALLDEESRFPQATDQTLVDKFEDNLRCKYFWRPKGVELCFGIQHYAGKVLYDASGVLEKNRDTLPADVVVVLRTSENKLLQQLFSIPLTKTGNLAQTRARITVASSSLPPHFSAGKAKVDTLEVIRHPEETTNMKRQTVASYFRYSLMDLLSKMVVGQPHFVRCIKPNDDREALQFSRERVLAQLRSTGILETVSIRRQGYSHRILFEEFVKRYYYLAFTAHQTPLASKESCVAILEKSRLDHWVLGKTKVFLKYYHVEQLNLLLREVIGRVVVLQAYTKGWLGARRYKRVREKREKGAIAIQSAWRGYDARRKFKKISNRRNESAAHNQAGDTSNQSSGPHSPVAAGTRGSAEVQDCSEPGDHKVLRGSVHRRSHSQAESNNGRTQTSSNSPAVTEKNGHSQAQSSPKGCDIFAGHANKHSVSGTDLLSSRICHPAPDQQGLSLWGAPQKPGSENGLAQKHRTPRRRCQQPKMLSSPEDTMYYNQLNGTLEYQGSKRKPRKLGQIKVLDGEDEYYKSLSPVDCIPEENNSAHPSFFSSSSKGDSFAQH

PIM1 (human) = PIM1 (human) (UniProt P11309)
CDK4 CCND1 (human) = CDK4 CCND1 (human) (UniProt P24385+P11802)
PRKACA (human) = PRKACA (human) (UniProt P17612)
EPHA8 (human) = EPHA8 (human) (UniProt P29322)
CSNK2A2 (human) = CSNK2A2 (human) (UniProt P19784)
CAMK4 (human) = CAMK4 (human) (UniProt Q16566)
CHEK1 (human) = CHEK1 (human) (UniProt O14757)
CSNK1G1 (human) = CSNK1G1 (human) (UniProt Q9HCP0)
ULK2 (human) = ULK2 (human) (UniProt Q8IYT8)
PTK6 (human) = PTK6 (human) (UniProt Q13882)
FLT3 (human) = FLT3 (human) (UniProt P36888)
Sequence of FLT3 (human) (P36888 whole entry, looked up): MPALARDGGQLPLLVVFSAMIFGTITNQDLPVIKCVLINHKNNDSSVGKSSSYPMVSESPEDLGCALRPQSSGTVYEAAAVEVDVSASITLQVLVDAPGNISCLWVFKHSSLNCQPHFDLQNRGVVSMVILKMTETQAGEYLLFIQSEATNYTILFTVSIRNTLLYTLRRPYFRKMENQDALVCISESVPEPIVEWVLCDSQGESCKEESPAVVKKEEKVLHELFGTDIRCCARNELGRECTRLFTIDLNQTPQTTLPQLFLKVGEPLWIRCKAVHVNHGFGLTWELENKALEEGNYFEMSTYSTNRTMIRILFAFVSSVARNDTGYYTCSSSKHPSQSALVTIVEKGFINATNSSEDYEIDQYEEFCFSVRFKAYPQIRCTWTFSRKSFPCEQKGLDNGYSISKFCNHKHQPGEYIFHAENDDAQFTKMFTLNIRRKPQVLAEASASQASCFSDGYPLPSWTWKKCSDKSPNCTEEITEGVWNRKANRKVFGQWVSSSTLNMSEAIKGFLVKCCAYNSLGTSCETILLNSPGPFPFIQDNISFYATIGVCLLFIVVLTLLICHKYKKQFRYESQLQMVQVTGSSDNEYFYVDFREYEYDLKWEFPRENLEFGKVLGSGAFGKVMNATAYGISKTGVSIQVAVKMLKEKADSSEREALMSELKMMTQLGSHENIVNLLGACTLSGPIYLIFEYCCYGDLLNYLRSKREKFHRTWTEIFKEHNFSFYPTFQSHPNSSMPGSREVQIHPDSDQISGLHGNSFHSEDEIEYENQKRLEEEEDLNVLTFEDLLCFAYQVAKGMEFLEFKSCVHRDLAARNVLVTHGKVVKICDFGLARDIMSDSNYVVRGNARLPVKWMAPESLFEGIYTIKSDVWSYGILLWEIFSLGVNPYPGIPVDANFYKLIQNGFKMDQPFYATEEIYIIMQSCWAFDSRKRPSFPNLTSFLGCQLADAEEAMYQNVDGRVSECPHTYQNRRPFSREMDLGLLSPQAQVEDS

PKN2 (human) = PKN2 (human) (UniProt Q16513)
CDK3 CCNE1 (human) = CDK3 CCNE1 (human) (UniProt Q00526+P24864)
STK3 (human) = STK3 (human) (UniProt Q13188)

`N#C/C(=C\c1ccc(O)c(O)c1)C(=O)NCc1ccccc1` was tested, and the residual activity (IRAK4 (human)) was 93.7%, the residual activity [1] was 77.8% and the residual activity (NEK9 (human)) was 97.2%. The residual activity (IKBKE (human)) was 105%, the residual activity (MAPK9 (human)) was 103% and the residual activity (LTK (human)) was 91.4%. For the same compound, the residual activity (CSF1R (human)) was 100%, the residual activity (MAP3K7 TAB1 (human)) was 98.1% and the residual activity (EPHA7 (human)) was 89.7%. For the same compound, the residual activity (STK38 (human)) was 99.1%, the residual activity (PRKD3 (human)) was 90.2% and the residual activity (TSSK1B (human)) was 90.2%. For the same compound, the residual activity (NEK1 (human)) was 97.3%, the residual activity (CDK9 CCNK (human)) was 102% and the residual activity (WEE1 (human)) was 89.9%. It also gave a residual activity (STK16 (human)) of 99.1%, a residual activity (EPHB3 (human)) of 101% and a residual activity (PRKCE (human)) of 100%. For the same compound, the residual activity (WNK3 (human)) was 95%, the residual activity (NTRK1 (human)) was 98.4% and the residual activity (EPHB4 (human)) was 88.2%. The residual activity (LRRK2 (human)) was 101%, the residual activity (PAK2 (human)) was 76.8% and the residual activity (PHKG2 (human)) was 96%. The residual activity (ULK3 (human)) was 71.2%, the residual activity (AKT2 (human)) was 98.4% and the residual activity (PRKACG (human)) was 90.7%. The residual activity (MYO3B (human)) was 88.3%, the residual activity (PIM1 (human)) was 108% and the residual activity (CDK4 CCND1 (human)) was 109%. The residual activity (PRKACA (human)) was 104%, the residual activity (EPHA8 (human)) was 92% and the residual activity (CSNK2A2 (human)) was 81.9%. The residual activity (CAMK4 (human)) was 97%, the residual activity (CHEK1 (human)) was 89.2% and the residual activity (CSNK1G1 (human)) was 102%. The residual activity (ULK2 (human)) was 106%, the residual activity (PTK6 (human)) was 86.7% and the residual activity (FLT3 (human)) was 92.8%.

For `O=C1c2ccccc2-c2nc3nnnn3nc21`, the residual activity (IRAK4 (human)) was 96.9%, the residual activity (PKN2 (human)) was 77.1% and the residual activity [1] was 79.3%. It also gave a residual activity (NEK9 (human)) of 119%, a residual activity (IKBKE (human)) of 89.2% and a residual activity (MAPK9 (human)) of 51.9%. The residual activity (LTK (human)) was 177%, the residual activity (CSF1R (human)) was 11.6% and the residual activity (MAP3K7 TAB1 (human)) was 89.9%. It also gave a residual activity (EPHA7 (human)) of 81.9%, a residual activity (STK38 (human)) of 46.6% and a residual activity (PRKD3 (human)) of 83.4%. For the same compound, the residual activity (TSSK1B (human)) was 88.7%, the residual activity (NEK1 (human)) was 46.3% and the residual activity (CDK9 CCNK (human)) was 74.4%. For the same compound, the residual activity (WEE1 (human)) was 70.9%, the residual activity (STK16 (human)) was 80.5% and the residual activity (EPHB3 (human)) was 90.2%. It also gave a residual activity (PRKCE (human)) of 99%, a residual activity (WNK3 (human)) of 116% and a residual activity (NTRK1 (human)) of 76.6%. It also gave a residual activity (EPHB4 (human)) of 97.1%, a residual activity (LRRK2 (human)) of 85.6% and a residual activity (PAK2 (human)) of 96.2%. The residual activity (PHKG2 (human)) was 96.1%, the residual activity (ULK3 (human)) was 103% and the residual activity (AKT2 (human)) was 55.8%. It also gave a residual activity (PRKACG (human)) of 88.5%, a residual activity (MYO3B (human)) of 88.4% and a residual activity (PIM1 (human)) of 94.1%. For the same compound, the residual activity (CDK4 CCND1 (human)) was 59.9%, the residual activity (PRKACA (human)) was 76.6% and the residual activity (EPHA8 (human)) was 92.6%. The residual activity (CSNK2A2 (human)) was 76.2%, the residual activity (CAMK4 (human)) was 85.4% and the residual activity (CDK3 CCNE1 (human)) was 73.4%. For the same compound, the residual activity (CHEK1 (human)) was 112%, the residual activity (CSNK1G1 (human)) was 85.2% and the residual activity (ULK2 (human)) was 105%. For the same compound, the residual activity (PTK6 (human)) was 111% and the residual activity (FLT3 (human)) was 100%.

`C[C@@H]1CCN(C(=O)CC#N)C[C@@H]1N(C)c1ncnc2[nH]ccc12` was tested, and the residual activity (IRAK4 (human)) was 88.5%, the residual activity [1] was 89.9% and the residual activity (NEK9 (human)) was 96.2%. It also gave a residual activity (IKBKE (human)) of 94.8%, a residual activity (MAPK9 (human)) of 112% and a residual activity (CSF1R (human)) of 101%. It also gave a residual activity (MAP3K7 TAB1 (human)) of 87.5%, a residual activity (EPHA7 (human)) of 89% and a residual activity (STK38 (human)) of 95.7%. The residual activity (PRKD3 (human)) was 89.8%, the residual activity (TSSK1B (human)) was 85.1% and the residual activity (NEK1 (human)) was 84.6%. It also gave a residual activity (CDK9 CCNK (human)) of 102%, a residual activity (WEE1 (human)) of 97.7% and a residual activity (STK16 (human)) of 94.7%. The residual activity (EPHB3 (human)) was 54.9%, the residual activity (PRKCE (human)) was 98.5% and the residual activity (WNK3 (human)) was 104%. The residual activity (NTRK1 (human)) was 94.1%, the residual activity (EPHB4 (human)) was 89.8% and the residual activity (LRRK2 (human)) was 51.3%. It also gave a residual activity (PAK2 (human)) of 111%, a residual activity (PHKG2 (human)) of 98.6% and a residual activity (ULK3 (human)) of 101%. The residual activity (AKT2 (human)) was 98%, the residual activity (PRKACG (human)) was 111% and the residual activity (MYO3B (human)) was 89.3%. It also gave a residual activity (STK3 (human)) of 85.8%, a residual activity (PIM1 (human)) of 102% and a residual activity (CDK4 CCND1 (human)) of 94.1%. It also gave a residual activity (EPHA8 (human)) of 109%, a residual activity (CSNK2A2 (human)) of 96.6% and a residual activity (CAMK4 (human)) of 96.3%. For the same compound, the residual activity (CDK3 CCNE1 (human)) was 92.3%, the residual activity (CHEK1 (human)) was 94.1% and the residual activity (CSNK1G1 (human)) was 101%. For the same compound, the residual activity (ULK2 (human)) was 92%, the residual activity (PTK6 (human)) was 101% and the residual activity (FLT3 (human)) was 77.9%.
